According to ChEMBL document CHEMBL1649076, “Discovery of 5-chloro-N2-[(1S)-1-(5-fluoropyrimidin-2-yl)ethyl]-N4-(5-methyl-1H-pyrazol-3-yl)pyrimidine-2,4-diamine (AZD1480) as a novel inhibitor of the Jak/Stat pathway” (J Med Chem, 2011):

What was measured:
[1] = molecular target: T1, Tyrosine-protein kinase JAK2 (Homo sapiens, UniProt O60674); assay: Inhibition of JAK2 using Km ATP concentration
[2] = molecular target: T1, Tyrosine-protein kinase JAK2; assay: Inhibition of JAK2 using 5 mM of ATP
[3] = molecular target: T2, Tyrosine-protein kinase JAK3 (Homo sapiens, UniProt P52333); assay: Inhibition of JAK3 using 5 mM of ATP
T2 sequence (P52333 whole entry): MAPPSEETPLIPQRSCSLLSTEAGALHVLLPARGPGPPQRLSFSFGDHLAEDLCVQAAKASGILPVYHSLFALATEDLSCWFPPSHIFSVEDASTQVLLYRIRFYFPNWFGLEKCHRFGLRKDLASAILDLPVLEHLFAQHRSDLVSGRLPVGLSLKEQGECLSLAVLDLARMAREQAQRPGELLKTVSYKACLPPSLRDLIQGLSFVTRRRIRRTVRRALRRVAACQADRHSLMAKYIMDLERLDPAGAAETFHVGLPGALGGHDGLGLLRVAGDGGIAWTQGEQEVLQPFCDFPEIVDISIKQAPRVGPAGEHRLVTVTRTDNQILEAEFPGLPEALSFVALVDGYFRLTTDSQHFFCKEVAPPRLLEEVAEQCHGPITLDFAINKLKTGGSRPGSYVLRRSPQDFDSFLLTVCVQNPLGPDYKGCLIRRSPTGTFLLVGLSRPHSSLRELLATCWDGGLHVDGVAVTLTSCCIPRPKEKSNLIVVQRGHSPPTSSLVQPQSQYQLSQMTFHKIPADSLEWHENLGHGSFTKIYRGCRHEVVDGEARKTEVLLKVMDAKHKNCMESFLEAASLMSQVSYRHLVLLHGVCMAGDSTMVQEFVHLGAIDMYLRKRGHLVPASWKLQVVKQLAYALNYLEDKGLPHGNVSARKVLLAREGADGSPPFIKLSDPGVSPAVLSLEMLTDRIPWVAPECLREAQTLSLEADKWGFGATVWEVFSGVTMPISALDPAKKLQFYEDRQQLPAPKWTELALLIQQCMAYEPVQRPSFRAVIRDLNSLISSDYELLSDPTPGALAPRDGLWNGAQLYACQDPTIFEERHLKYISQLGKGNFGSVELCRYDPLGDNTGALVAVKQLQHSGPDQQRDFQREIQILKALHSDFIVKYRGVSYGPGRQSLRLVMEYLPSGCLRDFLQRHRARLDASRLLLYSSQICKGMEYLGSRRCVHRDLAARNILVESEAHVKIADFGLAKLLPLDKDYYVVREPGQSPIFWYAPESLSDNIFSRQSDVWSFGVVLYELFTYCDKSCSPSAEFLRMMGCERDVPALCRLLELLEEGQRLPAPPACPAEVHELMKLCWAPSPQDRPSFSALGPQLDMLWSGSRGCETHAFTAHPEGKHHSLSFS

[4] = Growth inhibition of mouse BA/F3 cells expressing Tel-JAK2 kinase after 48 hrs by MTS assay; type: functional; conditions: BaF3, 48 h
[5] = Aqueous equilibrium solubility of the compound at pH 7.4 by HPLC-UV analysis; type: physicochemical
[6] = Octanol-water partition coefficient, log D of the compound at pH 7.4 by shake flask method; type: physicochemical
[7] = Oral bioavailability in Han Wistar rat at 10 mg/kg; type: ADME, organism-based; conditions: in vivo
[8] = Observed clearance in Han Wistar rat at 10 mg/kg, po and 3 mg/kg, iv; type: ADME, organism-based; conditions: in vivo
[9] = Volume of distribution at steady state in Han Wistar rat at 10 mg/kg, po and 3 mg/kg, iv; type: ADME, organism-based; conditions: in vivo, read-out: Vdss
[10] = Half life in Han Wistar rat at 10 mg/kg, po and 3 mg/kg, iv; type: ADME, organism-based; conditions: in vivo
Liver microsomes = assay: Intrinsic clearance in rat liver microsomes assessed per mg of protein at 2 uM by LCMS/MS analysis; type: ADME, Microsome
[11] = AUC (0 to 24 hrs) in Han Wistar rat at 10 mg/kg, po; type: ADME, organism-based; parameters: time < 24 hr, dose 10 mg/kg, route oral; conditions: plasma
[12] = Inhibition of Stat5 phosphorylation in mouse Ba/F3 cells expressing EPOR; conditions: BaF3

T1 sequence (O60674 whole entry): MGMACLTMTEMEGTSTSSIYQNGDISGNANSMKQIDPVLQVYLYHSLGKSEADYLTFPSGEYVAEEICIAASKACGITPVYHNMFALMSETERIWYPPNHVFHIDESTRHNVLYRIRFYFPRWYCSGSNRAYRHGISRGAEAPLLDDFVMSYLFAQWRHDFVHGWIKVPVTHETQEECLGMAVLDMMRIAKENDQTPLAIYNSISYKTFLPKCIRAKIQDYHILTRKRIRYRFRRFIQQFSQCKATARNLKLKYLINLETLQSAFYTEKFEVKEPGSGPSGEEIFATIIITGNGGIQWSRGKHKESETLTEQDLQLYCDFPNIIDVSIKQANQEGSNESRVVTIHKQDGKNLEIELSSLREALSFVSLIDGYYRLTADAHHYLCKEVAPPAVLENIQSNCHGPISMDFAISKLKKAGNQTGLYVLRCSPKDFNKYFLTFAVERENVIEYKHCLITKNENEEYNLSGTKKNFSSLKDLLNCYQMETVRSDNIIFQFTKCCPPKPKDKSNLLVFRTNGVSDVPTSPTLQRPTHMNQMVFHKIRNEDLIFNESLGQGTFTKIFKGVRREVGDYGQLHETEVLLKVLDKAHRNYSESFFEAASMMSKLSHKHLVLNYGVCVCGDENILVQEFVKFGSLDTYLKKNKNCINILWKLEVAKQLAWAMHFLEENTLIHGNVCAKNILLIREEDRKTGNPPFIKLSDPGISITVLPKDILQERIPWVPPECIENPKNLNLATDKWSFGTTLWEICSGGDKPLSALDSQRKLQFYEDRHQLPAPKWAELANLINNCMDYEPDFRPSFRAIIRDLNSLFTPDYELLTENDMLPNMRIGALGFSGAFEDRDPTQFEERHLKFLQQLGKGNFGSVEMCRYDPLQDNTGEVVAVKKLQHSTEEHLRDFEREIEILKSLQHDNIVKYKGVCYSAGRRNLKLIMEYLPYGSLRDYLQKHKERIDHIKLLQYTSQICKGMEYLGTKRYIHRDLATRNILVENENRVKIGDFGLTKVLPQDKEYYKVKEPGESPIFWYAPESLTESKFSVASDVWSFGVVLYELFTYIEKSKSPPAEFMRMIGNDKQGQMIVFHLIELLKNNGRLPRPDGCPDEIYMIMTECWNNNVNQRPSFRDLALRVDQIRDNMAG

| IC50 [1] [nM] | IC50 [2] [nM] | IC50 [3] [nM] | solubility thermodynamic [5] [µM] | logD [6] | bioavailability [7] [%] | clearance [8] [mL/min/kg] | Vd [9] [L/kg] | half-life [10] [h] | clearance (Liver microsomes) [µL/min/mg] | AUC(0-t) at 24 h [11] [µM·h] | EC50 [12] [nM] | Structure (SMILES) | GI50 [4] [nM] |
| --- | --- | --- | --- | --- | --- | --- | --- | --- | --- | --- | --- | --- | --- |
| 4 | 108 | > 30000 | > 460 | < 2.6 |  |  |  |  |  |  |  | COc1cc(Nc2nc(N[C@@H](C)c3ncc(F)cn3)ncc2Br)n[nH]1 | 590 |
| 3 | 108 | > 30000 | > 460 | < 2.6 |  |  |  |  |  |  |  | COc1cc(Nc2nc(N[C@@H](C)c3ncc(F)cn3)ncc2Cl)n[nH]1 | 410 |
| 9 | 488 | > 30000 | > 460 | < 2.6 |  |  |  |  |  |  |  | C[C@H](Nc1ncc(Cl)c(Nc2cc(N(C)C)[nH]n2)n1)c1ncc(F)cn1 | 1200 |
| < 3 | 10 | 4590 | > 460 | < 2.6 |  |  |  |  |  |  |  | Cc1cc(Nc2nc(N[C@@H](C)c3ncc(F)cn3)ncc2Br)n[nH]1 | 89 |
|  |  |  | > 460 | < 2.6 |  | 19 | 3 | 2.9 |  | 33.5 |  | Cc1cc(Nc2nc(N[C@H](C)c3ncc(F)cn3)ncc2Cl)n[nH]1 | 11000 |
| < 3 |  |  | > 460 | < 2.6 |  |  |  |  |  |  |  | C[C@H](Nc1ncc(Cl)c(Nc2cc(C3CC3)[nH]n2)n1)c1ncc(F)cn1 | 150 |
|  |  | 5250 | > 460 | < 2.6 | 100 | 12 | 0.8 | 0.85 | 10 |  |  | Cc1cc(Nc2nc(N[C@@H](C)c3ncc(F)cn3)ncc2F)n[nH]1 | 230 |

More lines, now with the values behind:

| Structure (SMILES) | IC50 [1] [nM] | IC50 [2] [nM] | IC50 [3] [nM] | solubility thermodynamic [5] [µM] | logD [6] | bioavailability [7] [%] | clearance [8] [mL/min/kg] | Vd [9] [L/kg] | half-life [10] [h] | clearance (Liver microsomes) [µL/min/mg] | AUC(0-t) at 24 h [11] [µM·h] | EC50 [12] [nM] | GI50 [4] [nM] |
| --- | --- | --- | --- | --- | --- | --- | --- | --- | --- | --- | --- | --- | --- |
| Cc1cc(Nc2nc(O[C@H](C)c3ncc(F)cn3)ncc2Cl)n[nH]1 |  |  | > 30000 | > 460 | < 2.6 |  |  |  |  |  |  |  | > 10000 |
| COc1cc(Nc2nc(N[C@@H](C)c3ncc(F)cn3)nc(N3CCOCC3)c2Cl)n[nH]1 | 4 | 90 | 2960 | > 460 | < 2.6 |  |  |  |  |  |  |  | 1300 |
| Cc1cc(Nc2nc(N[C@@H](C)c3ncc(F)cn3)nc(N3CCOCC3)c2F)n[nH]1 | < 3 | < 3 | > 30000 | > 460 | < 2.6 | 34 | 14 | 1.7 | 1.9 |  |  |  | 13 |
| Cc1cc(Nc2nc(N[C@@H](C)c3ncc(F)cn3)ncc2C)n[nH]1 | < 3 | 4 | 8350 | > 460 | < 2.6 | 100 | 18 | 2.4 | 1.9 | 25 |  |  | 96 |
| Cc1cc(Nc2nc(N[C@@H](C)c3ncc(F)cn3)nc(N3CCOCC3)c2Cl)n[nH]1 | < 3 | 9 | 11800 | > 460 | < 2.6 | 20 | 221 | 4.6 | 0.36 | 16 |  |  | 17 |
| C[C@H](Nc1ncc(F)c(Nc2cc(C3CC3)[nH]n2)n1)c1ncc(F)cn1 | 3 |  |  | > 460 | < 2.6 |  |  |  |  |  |  |  | 250 |
| COc1cc(Nc2cc(N3CCOCC3)nc(N[C@@H](C)c3ncc(F)cn3)n2)n[nH]1 | 10 | 30 | 200 | > 460 | < 2.6 |  |  |  |  |  |  |  | 73 |
| COc1cc(Nc2nc(N[C@@H](C)c3ncc(F)cn3)nc(N3CCOCC3)c2F)n[nH]1 | 4 | 8 | 30500 | > 460 | < 2.6 |  |  |  |  |  |  |  | 240 |
| Cc1cc(Nc2cc(N3CCOCC3)nc(N[C@@H](C)c3ncc(F)cn3)n2)[nH]n1 | < 3 | < 3 | 30 | > 460 | < 2.6 | 64 | 18 | 1.4 | 1.1 | 10 |  |  | 50 |
| C[C@H](Nc1ncc(F)c(Nc2cc(N(C)C)[nH]n2)n1)c1ncc(F)cn1 | 16 | 815 | > 30000 | > 460 | < 2.6 |  |  |  |  |  |  |  | 2200 |
| Cc1cc(Nc2nc(O[C@@H](C)c3ncc(F)cn3)ncc2Cl)n[nH]1 |  |  | 12700 | > 460 | < 2.6 |  |  |  |  |  |  | 39000 | 170 |
